The kinase profiling compilation of Christmann-Franck et al. (2016)
Several values for one entry are separate records, joined by “and”; a condition that tells them apart may be missing. Identical values can stand only once.

Assays:
Test in all cases: radiometric filter-binding kinase assay, Kinase HotSpot
Conditions in all cases: compound 0.5 µM; ATP 10 µM
SRC (human) = SRC (human) (UniProt P12931)
PRKCB2 (human) = PRKCB2 (human) (UniProt P05771)
MUSK (human) = MUSK (human) (UniProt O15146)
CSK (human) = CSK (human) (UniProt P41240)
HIPK3 (human) = HIPK3 (human) (UniProt Q9H422)
CDK1 CCNA2 (human) = CDK1 CCNA2 (human) (UniProt P06493+P20248)
RPS6KA2 KD1 KD2 (human) = RPS6KA2 KD1 KD2 (human) (UniProt Q15349)
MAPKAPK3 (human) = MAPKAPK3 (human) (UniProt Q16644)
MINK1 (human) = MINK1 (human) (UniProt Q8N4C8)
LCK (human) = LCK (human) (UniProt P06239)
TSSK2 (human) = TSSK2 (human) (UniProt Q96PF2)
PAK3 (human) = PAK3 (human) (UniProt O75914)
DYRK3 (human) = DYRK3 (human) (UniProt O43781)
MELK (human) = MELK (human) (UniProt Q14680)
MAPKAPK2 (human) = MAPKAPK2 (human) (UniProt P49137)
INSR (human) = INSR (human) (UniProt P06213)
PLK2 (human) = PLK2 (human) (UniProt Q9NYY3)
MKNK2 (human) = MKNK2 (human) (UniProt Q9HBH9)
AKT2 (human) = AKT2 (human) (UniProt P31751)
NTRK3 (human) = NTRK3 (human) (UniProt Q16288)
NUAK1 (human) = NUAK1 (human) (UniProt O60285)
CDK2 CCNA2 (human) = CDK2 CCNA2 (human) (UniProt P24941+P20248)
ROCK1 (human) = ROCK1 (human) (UniProt Q13464)
BRSK2 (human) = BRSK2 (human) (UniProt Q8IWQ3)
PASK (human) = PASK (human) (UniProt Q96RG2)
DSTYK (human) = DSTYK (human) (UniProt Q6XUX3)
TBK1 (human) = TBK1 (human) (UniProt Q9UHD2)
DMPK (human) = DMPK (human) (UniProt Q09013)
NEK7 (human) = NEK7 (human) (UniProt Q8TDX7)
LYN (human) = LYN (human) (UniProt P07948)
EPHA3 (human) = EPHA3 (human) (UniProt P29320)
CLK2 (human) = CLK2 (human) (UniProt P49760)
VRK1 (human) = VRK1 (human) (UniProt Q99986)
HCK (human) = HCK (human) (UniProt P08631)
TSSK1B (human) = TSSK1B (human) (UniProt Q9BXA7)
CSNK1G3 (human) = CSNK1G3 (human) (UniProt Q9Y6M4)
MAP3K11 (human) = MAP3K11 (human) (UniProt Q16584)
NEK3 (human) = NEK3 (human) (UniProt P51956)
ERBB2 (human) = ERBB2 (human) (UniProt P04626)
PAK4 (human) = PAK4 (human) (UniProt O96013)
CSNK2A2 (human) = CSNK2A2 (human) (UniProt P19784)
IKBKE (human) = IKBKE (human) (UniProt Q14164)
Chain of IKBKE (human) (Q14164 whole entry, looked up): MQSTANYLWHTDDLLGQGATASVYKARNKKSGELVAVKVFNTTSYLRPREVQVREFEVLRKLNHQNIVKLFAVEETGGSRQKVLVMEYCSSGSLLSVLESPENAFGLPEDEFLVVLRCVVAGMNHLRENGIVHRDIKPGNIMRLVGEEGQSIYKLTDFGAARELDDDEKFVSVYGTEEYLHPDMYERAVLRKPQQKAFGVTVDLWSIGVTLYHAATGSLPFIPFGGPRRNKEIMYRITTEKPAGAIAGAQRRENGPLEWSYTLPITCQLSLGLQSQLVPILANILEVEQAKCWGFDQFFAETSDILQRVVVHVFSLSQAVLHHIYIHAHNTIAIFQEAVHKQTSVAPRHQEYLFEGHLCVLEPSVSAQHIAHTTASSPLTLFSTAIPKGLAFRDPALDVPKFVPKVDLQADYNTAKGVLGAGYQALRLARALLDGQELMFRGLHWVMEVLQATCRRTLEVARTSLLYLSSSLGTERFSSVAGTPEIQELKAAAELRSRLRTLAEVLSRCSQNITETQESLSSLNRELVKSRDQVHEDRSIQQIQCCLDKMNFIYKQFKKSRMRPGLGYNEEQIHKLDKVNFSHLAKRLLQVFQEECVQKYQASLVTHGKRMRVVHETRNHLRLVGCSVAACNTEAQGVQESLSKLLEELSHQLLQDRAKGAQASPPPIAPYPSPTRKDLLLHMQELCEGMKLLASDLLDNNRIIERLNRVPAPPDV

Chain of TSSK2 (human) (Q96PF2 whole entry, looked up): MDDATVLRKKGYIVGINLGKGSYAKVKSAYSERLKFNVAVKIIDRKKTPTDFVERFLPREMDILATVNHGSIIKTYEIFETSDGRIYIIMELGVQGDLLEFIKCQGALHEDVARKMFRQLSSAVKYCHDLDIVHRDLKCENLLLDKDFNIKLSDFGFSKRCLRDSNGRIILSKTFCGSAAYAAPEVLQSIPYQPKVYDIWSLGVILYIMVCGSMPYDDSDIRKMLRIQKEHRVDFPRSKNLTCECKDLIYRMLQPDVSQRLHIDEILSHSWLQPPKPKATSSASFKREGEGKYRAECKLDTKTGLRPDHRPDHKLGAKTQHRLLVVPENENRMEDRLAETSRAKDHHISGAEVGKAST
Chain of NTRK3 (human) (Q16288 whole entry, looked up): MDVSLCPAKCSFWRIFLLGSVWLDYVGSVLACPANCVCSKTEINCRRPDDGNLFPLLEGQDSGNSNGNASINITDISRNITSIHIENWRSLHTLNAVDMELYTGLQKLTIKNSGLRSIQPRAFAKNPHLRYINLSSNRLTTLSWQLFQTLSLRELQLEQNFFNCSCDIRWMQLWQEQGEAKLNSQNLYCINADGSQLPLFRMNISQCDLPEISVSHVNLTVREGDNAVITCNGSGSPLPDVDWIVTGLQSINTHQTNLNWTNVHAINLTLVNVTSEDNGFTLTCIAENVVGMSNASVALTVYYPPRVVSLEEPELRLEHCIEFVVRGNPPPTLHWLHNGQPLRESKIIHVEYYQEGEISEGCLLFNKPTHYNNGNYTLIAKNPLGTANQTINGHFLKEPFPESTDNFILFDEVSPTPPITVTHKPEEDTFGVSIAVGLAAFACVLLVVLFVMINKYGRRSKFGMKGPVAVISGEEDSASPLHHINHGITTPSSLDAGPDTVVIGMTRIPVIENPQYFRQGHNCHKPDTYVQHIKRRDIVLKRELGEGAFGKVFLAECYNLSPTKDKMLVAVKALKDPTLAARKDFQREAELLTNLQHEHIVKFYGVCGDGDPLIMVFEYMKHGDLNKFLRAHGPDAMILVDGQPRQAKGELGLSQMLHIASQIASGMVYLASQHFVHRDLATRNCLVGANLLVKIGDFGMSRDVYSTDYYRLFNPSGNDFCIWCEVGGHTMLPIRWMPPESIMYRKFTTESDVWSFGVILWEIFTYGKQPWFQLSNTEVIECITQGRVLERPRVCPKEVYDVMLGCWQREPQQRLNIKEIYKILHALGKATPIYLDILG
Chain of LCK (human) (P06239 whole entry, looked up): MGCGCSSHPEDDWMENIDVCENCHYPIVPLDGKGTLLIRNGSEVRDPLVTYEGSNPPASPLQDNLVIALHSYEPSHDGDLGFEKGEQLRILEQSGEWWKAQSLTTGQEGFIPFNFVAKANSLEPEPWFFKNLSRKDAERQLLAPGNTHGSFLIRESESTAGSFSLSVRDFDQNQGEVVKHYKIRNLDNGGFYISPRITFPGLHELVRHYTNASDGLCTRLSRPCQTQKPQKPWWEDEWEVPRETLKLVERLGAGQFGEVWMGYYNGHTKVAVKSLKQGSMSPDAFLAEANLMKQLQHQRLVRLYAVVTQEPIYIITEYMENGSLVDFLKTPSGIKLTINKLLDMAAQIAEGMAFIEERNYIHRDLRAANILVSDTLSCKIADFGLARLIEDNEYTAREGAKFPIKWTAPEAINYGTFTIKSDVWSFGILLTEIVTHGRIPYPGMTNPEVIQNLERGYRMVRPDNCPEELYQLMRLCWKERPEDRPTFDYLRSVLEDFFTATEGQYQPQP
Chain of MINK1 (human) (Q8N4C8 whole entry, looked up): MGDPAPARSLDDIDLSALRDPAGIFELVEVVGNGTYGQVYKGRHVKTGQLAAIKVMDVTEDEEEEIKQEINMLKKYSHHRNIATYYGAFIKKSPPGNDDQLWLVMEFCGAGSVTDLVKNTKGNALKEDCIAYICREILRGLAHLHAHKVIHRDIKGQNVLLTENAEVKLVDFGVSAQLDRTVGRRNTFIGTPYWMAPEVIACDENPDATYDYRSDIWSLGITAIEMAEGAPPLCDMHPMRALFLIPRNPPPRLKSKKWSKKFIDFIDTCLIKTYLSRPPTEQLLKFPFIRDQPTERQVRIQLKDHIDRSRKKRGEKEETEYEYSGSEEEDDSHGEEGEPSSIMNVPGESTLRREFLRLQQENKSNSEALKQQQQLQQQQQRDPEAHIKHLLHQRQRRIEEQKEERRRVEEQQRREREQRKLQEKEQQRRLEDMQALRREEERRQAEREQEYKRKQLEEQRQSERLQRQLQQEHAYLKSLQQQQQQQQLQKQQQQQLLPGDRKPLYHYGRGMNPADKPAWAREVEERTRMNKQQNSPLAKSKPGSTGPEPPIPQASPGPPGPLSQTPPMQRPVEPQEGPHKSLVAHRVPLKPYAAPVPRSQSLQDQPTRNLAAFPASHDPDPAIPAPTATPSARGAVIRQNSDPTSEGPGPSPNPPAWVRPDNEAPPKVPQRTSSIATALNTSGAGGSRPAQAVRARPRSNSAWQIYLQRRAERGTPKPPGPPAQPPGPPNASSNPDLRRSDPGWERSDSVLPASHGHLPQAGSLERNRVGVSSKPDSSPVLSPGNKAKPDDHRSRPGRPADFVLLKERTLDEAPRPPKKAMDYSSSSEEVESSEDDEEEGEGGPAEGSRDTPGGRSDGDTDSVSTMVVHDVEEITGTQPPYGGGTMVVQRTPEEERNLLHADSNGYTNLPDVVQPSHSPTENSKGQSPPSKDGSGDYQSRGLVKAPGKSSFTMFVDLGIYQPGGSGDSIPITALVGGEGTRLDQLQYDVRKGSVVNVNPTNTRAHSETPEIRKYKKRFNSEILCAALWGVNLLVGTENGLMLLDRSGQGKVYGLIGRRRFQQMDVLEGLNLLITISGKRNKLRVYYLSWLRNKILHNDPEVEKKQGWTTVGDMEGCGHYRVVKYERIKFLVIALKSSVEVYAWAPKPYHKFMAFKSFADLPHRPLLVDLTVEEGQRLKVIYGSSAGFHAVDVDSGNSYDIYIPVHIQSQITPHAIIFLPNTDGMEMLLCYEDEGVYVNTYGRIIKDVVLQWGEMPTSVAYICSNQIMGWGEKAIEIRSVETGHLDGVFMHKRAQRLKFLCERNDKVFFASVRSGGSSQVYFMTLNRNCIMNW
Chain of CSNK1G3 (human) (Q9Y6M4 whole entry, looked up): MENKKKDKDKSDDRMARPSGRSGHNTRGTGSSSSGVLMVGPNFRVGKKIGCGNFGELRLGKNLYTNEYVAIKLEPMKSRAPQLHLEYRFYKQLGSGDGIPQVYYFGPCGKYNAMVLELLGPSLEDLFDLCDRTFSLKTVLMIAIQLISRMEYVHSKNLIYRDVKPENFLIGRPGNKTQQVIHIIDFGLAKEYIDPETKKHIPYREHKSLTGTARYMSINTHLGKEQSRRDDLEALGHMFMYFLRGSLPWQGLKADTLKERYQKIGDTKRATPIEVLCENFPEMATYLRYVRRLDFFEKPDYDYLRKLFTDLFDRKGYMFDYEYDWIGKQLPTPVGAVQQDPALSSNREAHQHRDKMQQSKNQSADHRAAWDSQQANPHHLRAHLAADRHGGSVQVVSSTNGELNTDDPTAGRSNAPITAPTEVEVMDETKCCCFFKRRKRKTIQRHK
Chain of CSNK2A2 (human) (P19784 whole entry, looked up): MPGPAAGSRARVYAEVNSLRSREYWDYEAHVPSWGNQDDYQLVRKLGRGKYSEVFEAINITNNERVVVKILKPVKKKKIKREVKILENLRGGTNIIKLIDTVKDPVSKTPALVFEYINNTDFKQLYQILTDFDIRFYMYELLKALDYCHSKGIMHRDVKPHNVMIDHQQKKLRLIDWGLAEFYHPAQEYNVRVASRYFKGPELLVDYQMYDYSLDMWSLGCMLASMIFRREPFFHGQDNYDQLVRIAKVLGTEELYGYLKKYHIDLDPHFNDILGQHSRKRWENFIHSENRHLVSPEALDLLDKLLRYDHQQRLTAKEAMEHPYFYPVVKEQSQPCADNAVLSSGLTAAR
Chain of CLK2 (human) (P49760 whole entry, looked up): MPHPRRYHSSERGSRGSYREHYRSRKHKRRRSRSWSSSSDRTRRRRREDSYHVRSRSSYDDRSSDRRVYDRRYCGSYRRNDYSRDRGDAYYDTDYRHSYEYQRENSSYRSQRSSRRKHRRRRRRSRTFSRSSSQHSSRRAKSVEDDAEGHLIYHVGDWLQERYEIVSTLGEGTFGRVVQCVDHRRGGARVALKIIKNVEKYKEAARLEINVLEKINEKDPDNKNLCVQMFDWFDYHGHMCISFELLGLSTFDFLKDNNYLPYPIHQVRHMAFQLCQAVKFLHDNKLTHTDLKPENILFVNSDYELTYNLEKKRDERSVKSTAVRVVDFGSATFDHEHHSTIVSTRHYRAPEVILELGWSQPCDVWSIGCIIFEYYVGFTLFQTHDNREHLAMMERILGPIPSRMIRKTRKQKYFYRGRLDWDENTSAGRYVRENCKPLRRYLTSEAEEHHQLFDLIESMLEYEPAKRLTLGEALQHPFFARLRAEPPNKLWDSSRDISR

COc1cc2ncnc(N3CCN(C(=O)Nc4ccc(Oc5ccccc5)cc4)CC3)c2cc1OC
residual activity (SRC (human)): 102% | residual activity (PRKCB2 (human)): 102% | residual activity (MUSK (human)): 87.4% | residual activity (CSK (human)): 81.3% | residual activity (HIPK3 (human)): 87.4% | residual activity (CDK1 CCNA2 (human)): 92.3% | residual activity (RPS6KA2 KD1 KD2 (human)): 86.1% | residual activity (MAPKAPK3 (human)): 94.6% | residual activity (MINK1 (human)): 99.6% | residual activity (LCK (human)): 92.3% | residual activity (TSSK2 (human)): 79.1% | residual activity (PAK3 (human)): 98.1% | residual activity (DYRK3 (human)): 86.3% | residual activity (MELK (human)): 94.9% | residual activity (MAPKAPK2 (human)): 102% | residual activity (INSR (human)): 98.2% | residual activity (PLK2 (human)): 105% | residual activity (MKNK2 (human)): 94.2% | residual activity (AKT2 (human)): 87.6% | residual activity (NTRK3 (human)): 89% | residual activity (NUAK1 (human)): 88.8% | residual activity (CDK2 CCNA2 (human)): 93.1% | residual activity (ROCK1 (human)): 86% | residual activity (BRSK2 (human)): 94.1% | residual activity (PASK (human)): 97.7% | residual activity (DSTYK (human)): 113% | residual activity (TBK1 (human)): 96.3% | residual activity (DMPK (human)): 95.6% | residual activity (NEK7 (human)): 105% | residual activity (LYN (human)): 102% and 97.8% | residual activity (EPHA3 (human)): 93.7% | residual activity (CLK2 (human)): 81.3% | residual activity (VRK1 (human)): 77.4% | residual activity (HCK (human)): 91.7% | residual activity (TSSK1B (human)): 65.2% | residual activity (CSNK1G3 (human)): 82.7% | residual activity (MAP3K11 (human)): 97% | residual activity (NEK3 (human)): 100% | residual activity (ERBB2 (human)): 100% | residual activity (PAK4 (human)): 101% | residual activity (CSNK2A2 (human)): 61.9% | residual activity (IKBKE (human)): 98.9%

Cn1nc2c3c(cccc31)C(=O)c1ccccc1-2
residual activity (SRC (human)): 90.7% | residual activity (PRKCB2 (human)): 97.8% | residual activity (MUSK (human)): 88.4% | residual activity (CSK (human)): 88.7% | residual activity (HIPK3 (human)): 113% | residual activity (CDK1 CCNA2 (human)): 88% | residual activity (RPS6KA2 KD1 KD2 (human)): 93.5% | residual activity (MAPKAPK3 (human)): 104% | residual activity (MINK1 (human)): 92.3% | residual activity (LCK (human)): 99.2% | residual activity (TSSK2 (human)): 95.4% | residual activity (PAK3 (human)): 101% | residual activity (DYRK3 (human)): 129% | residual activity (MELK (human)): 83.6% | residual activity (MAPKAPK2 (human)): 102% | residual activity (INSR (human)): 99.5% | residual activity (PLK2 (human)): 93.5% | residual activity (MKNK2 (human)): 94.1% | residual activity (AKT2 (human)): 98.9% | residual activity (NTRK3 (human)): 71.6% | residual activity (NUAK1 (human)): 46.2% | residual activity (CDK2 CCNA2 (human)): 105% | residual activity (ROCK1 (human)): 98.4% | residual activity (BRSK2 (human)): 96.4% | residual activity (PASK (human)): 94.6% | residual activity (DSTYK (human)): 101% | residual activity (TBK1 (human)): 88.8% | residual activity (DMPK (human)): 107% | residual activity (NEK7 (human)): 93.1% | residual activity (LYN (human)): 96.1% and 97.7% | residual activity (EPHA3 (human)): 93.5% | residual activity (CLK2 (human)): 94.5% | residual activity (VRK1 (human)): 84.1% | residual activity (HCK (human)): 94.6% | residual activity (TSSK1B (human)): 98.4% | residual activity (CSNK1G3 (human)): 81.4% | residual activity (MAP3K11 (human)): 97.2% | residual activity (NEK3 (human)): 96.7% | residual activity (ERBB2 (human)): 96.9% | residual activity (PAK4 (human)): 90.4% | residual activity (CSNK2A2 (human)): 86.6% | residual activity (IKBKE (human)): 92.3%

COc1ccc(OC)c2c(=S)c3ccccc3[nH]c12
residual activity (SRC (human)): 90.6% | residual activity (PRKCB2 (human)): 106% | residual activity (MUSK (human)): 87.3% | residual activity (CSK (human)): 103% | residual activity (HIPK3 (human)): 101% | residual activity (CDK1 CCNA2 (human)): 96.2% | residual activity (RPS6KA2 KD1 KD2 (human)): 87.4% | residual activity (MAPKAPK3 (human)): 87.7% | residual activity (MINK1 (human)): 95.9% | residual activity (LCK (human)): 94.7% | residual activity (TSSK2 (human)): 108% | residual activity (PAK3 (human)): 98% | residual activity (DYRK3 (human)): 98.2% | residual activity (MELK (human)): 96.6% | residual activity (MAPKAPK2 (human)): 94.6% | residual activity (INSR (human)): 102% | residual activity (PLK2 (human)): 97.6% | residual activity (MKNK2 (human)): 86.2% | residual activity (AKT2 (human)): 94.6% | residual activity (NTRK3 (human)): 93.6% | residual activity (NUAK1 (human)): 99.3% | residual activity (CDK2 CCNA2 (human)): 88.6% | residual activity (ROCK1 (human)): 97.8% | residual activity (BRSK2 (human)): 92.5% | residual activity (PASK (human)): 90.1% | residual activity (DSTYK (human)): 91.3% | residual activity (TBK1 (human)): 97.5% | residual activity (DMPK (human)): 99.6% | residual activity (NEK7 (human)): 97.2% | residual activity (LYN (human)): 106% and 96.9% | residual activity (EPHA3 (human)): 94.9% | residual activity (CLK2 (human)): 81.2% | residual activity (VRK1 (human)): 100% | residual activity (HCK (human)): 95.8% | residual activity (TSSK1B (human)): 114% | residual activity (CSNK1G3 (human)): 86.2% | residual activity (MAP3K11 (human)): 107% | residual activity (NEK3 (human)): 107% | residual activity (ERBB2 (human)): 93.6% | residual activity (PAK4 (human)): 102% | residual activity (CSNK2A2 (human)): 87.1% | residual activity (IKBKE (human)): 104%

Cn1sc(=O)n(Cc2ccccc2)c1=O
residual activity (SRC (human)): 95% | residual activity (PRKCB2 (human)): 111% | residual activity (MUSK (human)): 103% | residual activity (CSK (human)): 101% | residual activity (HIPK3 (human)): 94.9% | residual activity (CDK1 CCNA2 (human)): 104% | residual activity (RPS6KA2 KD1 KD2 (human)): 104% | residual activity (MAPKAPK3 (human)): 105% | residual activity (MINK1 (human)): 88.7% | residual activity (LCK (human)): 103% | residual activity (TSSK2 (human)): 100% | residual activity (PAK3 (human)): 100% | residual activity (DYRK3 (human)): 108% | residual activity (MELK (human)): 99.3% | residual activity (MAPKAPK2 (human)): 102% | residual activity (INSR (human)): 93.7% | residual activity (PLK2 (human)): 106% | residual activity (MKNK2 (human)): 92.1% | residual activity (AKT2 (human)): 99.2% | residual activity (NTRK3 (human)): 107% | residual activity (NUAK1 (human)): 102% | residual activity (CDK2 CCNA2 (human)): 100% | residual activity (ROCK1 (human)): 94.6% | residual activity (BRSK2 (human)): 99.4% | residual activity (PASK (human)): 101% | residual activity (DSTYK (human)): 92.9% | residual activity (TBK1 (human)): 102% | residual activity (DMPK (human)): 100% | residual activity (NEK7 (human)): 101% | residual activity (LYN (human)): 90.8% and 98.9% | residual activity (EPHA3 (human)): 107% | residual activity (CLK2 (human)): 98.5% | residual activity (VRK1 (human)): 94.2% | residual activity (HCK (human)): 103% | residual activity (TSSK1B (human)): 94.4% | residual activity (CSNK1G3 (human)): 114% | residual activity (MAP3K11 (human)): 95.3% | residual activity (NEK3 (human)): 89.3% | residual activity (ERBB2 (human)): 106% | residual activity (PAK4 (human)): 104% | residual activity (CSNK2A2 (human)): 98.5% | residual activity (IKBKE (human)): 96.4%
